Measurements reported in patent publication US7132287B2, “Method for neural stem cell differentiation using 5HT-1A agonists” (Psychiatric Genomics, Inc., priority 2001, dated 2006).
Several values for one entry are separate records, joined by “and”; a condition that tells them apart may be missing. Equal entries are not always repeated.

Assays:
5HT1A receptor [1] = target: T1, 5HT1A receptor (Homo sapiens, UniProt P08908); conditions: cited from earlier work
T1 sequence (P08908 1-422): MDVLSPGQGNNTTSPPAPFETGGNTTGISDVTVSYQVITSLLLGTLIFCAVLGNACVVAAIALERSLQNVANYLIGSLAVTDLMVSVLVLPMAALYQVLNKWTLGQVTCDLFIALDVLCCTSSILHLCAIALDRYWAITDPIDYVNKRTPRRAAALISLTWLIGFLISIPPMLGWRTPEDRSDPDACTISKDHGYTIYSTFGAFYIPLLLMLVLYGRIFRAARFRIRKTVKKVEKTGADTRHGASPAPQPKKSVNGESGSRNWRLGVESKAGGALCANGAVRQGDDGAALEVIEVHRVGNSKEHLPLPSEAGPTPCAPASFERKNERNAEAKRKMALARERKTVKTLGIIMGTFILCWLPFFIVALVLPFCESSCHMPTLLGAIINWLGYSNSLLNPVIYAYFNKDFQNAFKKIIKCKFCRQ

adult rat hippocampus = conditions: Mahlberg et al., preliminary data; cited from earlier work
5HT1A receptor [2] = target: T1, 5HT1A receptor; conditions: cited from earlier work; remark: listed apart in the source
[3] = tested on: cerebellar neural stem cells
Protocol: Cells were treated with the drugs as shown in the presence or absence of the 5HT 1A antagonist WAY 100635 (10 nM), or vasoactive intestinal peptide
Drug treatments were started on the next day. Optimal concentrations were as follows: bFGF: 10 ng/ml; BDNF (R&D Systems, Minneapolis, Minn.): 20 ng/ml; buspirone (Sigma): 100–1000 nM; or Serotonin (Sigma): 5–10 μM; buspirone or serotonin and the 5HT1A antagonist WAY100635 (Sigma): 10 nM. The WAY 100635 antagonist compound was used simultaneously with buspirone or serotonin in the blocking experiments. Positive and negative control cultures were those treated with BDNF and FGF alone, respectively.
Untreated cells were used as a negative control.

[4] = target: T2, 5-HT1A receptors over dopamine D2 receptors (Homo sapiens, UniProt P08908); conditions: compared to buspirone; cited from earlier work
T2 sequence (P08908 1-422): T1 sequence (P08908 1-422)

cerebellar stem cells = test: Neuronal differentiation of cerebellar stem cells (TuJ1 positive cells); assay type: cell-based, rat; conditions: FIG. 2, lane 5, serotonin 5 μM; untreated control less than 20%
From the text: Isolation and quantitation of cerebellar stem cells. Neural stem cells were isolated from rat embryos (obtained from Taconic) at the 19th day of gestation (E19). The rats were sacrificed by inhalation of excess carbon dioxide. The abdomen of the rat was cleaned with 70% ethanol and the uterus was removed quickly and aseptically on the bench top. The uterus was placed in ice cold PBS (GIBCO Cat. # 20012-027) in a 200-ml beaker.
The cerebellar tissue was dissected under a microscope according to the following procedure and collected in a 15-ml tube containing HBSS on ice. The dissection should be completed in 1–2 hours (optimally) and the pH of the HBSS should remain neutral. First, the neck of the embryos was severed towards the bottom and the heads were collected in cold PBS. Next, the skin and scalp was removed from neck and head of the embryo. The brain, including the cerebral cortex, midbrain, cerebellum and some of the spinal cord, was removed by dissection under a microscope and transfered into a clean dish with fresh, cold PBS. The cerebellar region was dissected and cleaned of extraneous tissue, including removal of the meninges, and transferred into cold HBSS in a clean 15 ml tube.
The tube containing the cerebellar tissue was centrifuged at 1,000 RPM for 2 min at 15 C., followed by slow, careful aspiration of the HBSS supernatant (care should be taken to avoid aspirating tissue). (It is best to limit the centrifugation steps as much as possible.) About 1 to 3 ml of DMEM/F12/N2 medium (see below) was immediately added to the remaining tissue; the volume of medium depends on the quantity of the dissected tissue. The tissue was gently triturated about 8 to 10 times using a P-1000 Pipetteman until the tissue was dissociated (as evidenced by cloudy solution), then the tube was incubated in the hood for 5 minutes at room temperature to permit settlement of small particles of undissociated tissue. The supernatant was then transferred into a fresh tube, taking care to avoid the smaller particles of tissue that remained at the bottom of the tube.
Plating and expansion of cerebellar stem cells. The triturated cell suspension of E19 rat cerebellum was seeded into pre-coated 10 cm dishes at 2×10^6 cells per dish. This is denoted as the P0 culture (passage 0). The cells were grown in 5 ml of DMEM/F12/N2 supplemented with 25 mg/L insulin and 10 ng/ml bFGF at 37 C, 5% CO2 and 90% humidity.
Cells were fed daily with 10 ng/ml bFGF. The medium was changed one day after the cells were seeded, and thereafter every other day. On about day 4 of the culture, or when cells reached 70% confluence, the culture was passaged (see “Passage of cerebellar stem cells” below) and seeded into 10 cm dishes at an initial density of 2×10^6 cells per dish. This is denoted as the P1 culture (passage 1). The passaged cells at P1 were grown in DMEM/F12/N2 medium supplemented with 25 mg/L insulin and 10 ng/ml bFGF. The medium was changed every other day.
After two days of culture, some cells were passaged into a P2 culture, and some were seeded in 12-well tissue culture plates for experimental use. One ml of DMEM/F12/N2 medium was used per well of a 12-well plate at 2×10^4 cells per well. Experimental treatments were initiated the day after passage.
(§1) Drug treatments. Stem cells obtained as described above were treated with drugs and subjected to differentiation protocols in the second passage. Cells were plated at a density of 1×10^4 cells per well of a 12-well petridish (Falcon).
Drug treatments were started on the next day. […] The WAY 100635 antagonist compound was used simultaneously with buspirone or serotonin in the blocking experiments.

[5] = tested on: cortical neural stem cells; test: Neuronal differentiation of cortical neural stem cells (β tubulin III / TuJ-1 immunofluorescence); assay type: cell-based, rat; conditions: 6 days
From the text: Isolation of cortical and striatal stem cells. Timed pregnant Sprague Dawley rats obtained from Taconic at embryonic age E14-E15 were sacrificed as described above and the uterus removed and placed in ice cold PBS in a 10 cm petridish. After rinsing the uterus in PBS, embryos were removed from the uterus, rinsed in PBS and collected in cold HBSS (buffered with HEPES and sodium bicarbonate) in a 10 cm petridish and placed on ice.
The cortex and striatum was dissected under a microscope and collected in a 15 ml tube of HBSS, on ice. Removal of meninges is not possible at this age, and no attempt was made to do so. If the dissected tissue was in large enough chunks and settle to the bottom of the tube, no centrifugation was performed. Alternatively, the tube was centrifuged at 1000 rpm for 5 minutes to pellet the tissue. Following centrifugation, the 15 ml tube containing the tissue was sprayed with 70% ethanol and taken into the sterile hood.
The HBSS was aspirated and replaced with 10 ml of DMEM/F12. The tissue was collected at the bottom of the tube by gravity or centrifugation, medium was aspirated, and 1 ml of DMEM/F12 was to the tissue. Cells were dissociated by trituration as described above, followed by addition of 5 ml of DMEM/F12 and a second round of trituration. […] The tubes were placed standing 5–10 minutes in the hood to allow larger particles and meninges to settle. While the meninges were settling, a cell count was made. 10 μl of the cell suspension is diluted with trypan blue and counted in a hemocytometer. Cells were counted in the four outer chambers with the larger squares, and cell count calculated assuming that the volume enclosed in each of the chambers was […].
Plating, expansion and passaging of cortical and striatal stem cells A generous amount of the triturated cell suspension was left in the original 15 ml tube to avoid fibroblast contamination in cultures. About 4–5 ml of the 6 ml of cells suspension was used for plating. Cells were plated at a concentration of approximately 1×10^6 per 10 cm dish. This culture is designated P0 (passage 0).
Following plating cells were expanded for about 3–4 days. The cultures were never permitted to reach more than 70% confluency. Cultures were then passaged as follows: 5 ml of HBSS was added to each 10 cm dish and the cells incubated at 37° C. for 15–45 minutes, or until sufficient numbers of the stem cells were rounded up. It is not expected that all cells in the culture will round up as there are several cell types in the culture at P0. The pH of the HBSS should be neutral at all times during this incubation. Cells were then removed from the dish by pipetting with a 5 ml pipette, or by scraping with a policeman, collected in a 15 or 50 ml conical tube, and centrifuged at 1000 g for 5 minutes. Cells were gently re-suspended in medium, counted, and plated at a density of about 1×10^6 per 10 cm dish.
as §1
Drug treatments were started on the next day. […] The WAY 100635 antagonist compound was used simultaneously with buspirone or serotonin in the blocking experiments. Positive and negative control cultures were those treated with BDNF and FGF alone, respectively.
Cells were treated with the designated concentrations of drugs or combinations thereof, daily, and were fed every alternate day with fresh medium. Experiments were maintained for about 6–10 days in most cases.

COc1ccc2[nH]cc(CCN(C)C)c2c1 [5-methoxy-N,N-dimethyltryptamine]
affinity for the 5HT1A receptor (5HT1A receptor [1]): high affinity

CNCCC(Oc1ccc(C(F)(F)F)cc1)c1ccccc1 (centres unmarked) [fluoxetine]
neurogenesis in adult rat hippocampus (adult rat hippocampus): increases neurogenesis

CCCN(CCC)[C@@H]1CCc2ccc3[nH]c(C#N)cc3c2C1 [U-92016A]
intrinsic activity as 5-HT1A receptor agonist (5HT1A receptor [2]): exceptionally high degree of intrinsic activity

COc1ccccc1N1CCN(CCN(C(=O)C2CCCCC2)c2ccccn2)CC1 [WAY100635, N-[2-[4-(2-Methoxyphenyl)-1-piperazinyl]ethyl]-N-2-pyridinylcyclohexanecarboxamide]
effect of antagonist on buspirone-induced neuronal differentiation ([3]; WAY100635 10 nM added simultaneously with buspirone 500 nM, FIG. 2 lane 4): inhibited neuronal differentiation
effect of antagonist on serotonin-induced neuronal differentiation ([3]; WAY100635 10 nM added simultaneously with serotonin 5 μM, FIG. 2 lane 6): inhibited neuronal differentiation
effect of antagonist on vasoactive intestinal peptide-induced neuronal differentiation ([3]; WAY100635 10 nM added to VIP-treated cells, FIG. 2 lane 8): did not prevent or inhibit neuronal differentiation

CC1(C)CC(=O)N(CCCCN2CCN(c3ncccn3)CC2)C(=O)C1 [gepirone]
selectivity for 5-HT1A receptors over dopamine D2 receptors [4]: much greater selectivity

NCCc1c[nH]c2ccc(O)cc12 [serotonin, 5-hydroxytryptamine]
differentiation of neurons (cerebellar stem cells): 60%

bFGF: recombinant human basic fibroblast growth factor (R&D Systems), mitogenic growth factor; negative control
Total No. of Cells ([5]; 10 ng/ml bFGF): 7330 and 10210
No. Fluorescent Cells ([5]; 10 ng/ml bFGF, TuJ-1 staining): 33 and 65

B1: BDNF: brain-derived neurotrophic factor (R&D Systems), a known neuronal differentiation factor; positive control (protein, UniProt P23560 19-247, looked up)
Neurotrophic factor BDNF …: APMKEANIRGQGGLAYPGVRTHGTLESVNGPKAGSRGLTSLADTFEHVIEELLDEDQKVRPNEENNKDADLYTSRVMLSSQVPLEPPLLFLLEEYKNYLDAANMSMRVRRHSDPARRGELSVCDSISEWVTAADKKTAVDMSGGTVTVLEKVPVSKGQLKQYFYETKCNPMGYTKEGCRGIDKRHWNSQCRTTQSYVRALTMDSKKRIGWRFIRIDTSCVCTLTIKRGR
Total No. of Cells ([5]; 20 ng/ml BDNF): 624 and 1006
